Test results as given in US8106055B2, “Substituted amide compounds” (Gruenenthal GmbH, priority 2007, dated 2012).

Tests used:
[1] = biological target: T1, human bradykinin 1 receptor (B1R) (Homo sapiens, UniProt P46663); test: Functional investigation on the human bradykinin 1 receptor (B1R), Ca2+ FLIPR assay in CHO K1 hB1R cells; format: cell-based; conditions: B1R antagonism human; test substance 10 μM; Ca2+ FLIPR, CHO K1 hB1R cells
T1 construct: expressed in transfected cells; host or cells: CHO K1 cells
T1 sequence (P46663 1-353): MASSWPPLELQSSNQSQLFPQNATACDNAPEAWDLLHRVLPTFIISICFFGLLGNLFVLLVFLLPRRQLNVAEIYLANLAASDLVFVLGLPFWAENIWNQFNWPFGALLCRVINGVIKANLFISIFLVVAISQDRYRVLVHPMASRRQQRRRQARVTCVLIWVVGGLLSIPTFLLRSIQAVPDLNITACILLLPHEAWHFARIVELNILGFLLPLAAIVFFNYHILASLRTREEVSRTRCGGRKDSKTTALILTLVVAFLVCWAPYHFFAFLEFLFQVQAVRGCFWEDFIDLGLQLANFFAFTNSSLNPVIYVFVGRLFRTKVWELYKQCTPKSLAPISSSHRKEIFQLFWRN
Outline: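 Fluo-4 Ca2+ readout, peak fluorescence. Stable CHO K1 transfectants; compound pre-incubated 10-20 min, then EC80 agonist—Lys-Des-Arg9-BK for hB1R, Des-Arg9-BK for rB1R. % inhibition vs maximal inhibition; IC50 from multiple concentrations, duplicate/triplicate, ≥2 independent runs.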

[2] = biological target: T2, serotonin (5-HT) reuptake (Rattus norvegicus, UniProt P31652); test: Inhibition of serotonin (5HT) reuptake in synaptosomes from rat brain; format: biochemical; conditions: test concentration of 10 μM
T2 construct: synaptosomes are freshly isolated from areas of the rat brain; from tissue; host or cells: rat brain synaptosomes (P2 fraction)
T2 sequence (P31652 whole entry): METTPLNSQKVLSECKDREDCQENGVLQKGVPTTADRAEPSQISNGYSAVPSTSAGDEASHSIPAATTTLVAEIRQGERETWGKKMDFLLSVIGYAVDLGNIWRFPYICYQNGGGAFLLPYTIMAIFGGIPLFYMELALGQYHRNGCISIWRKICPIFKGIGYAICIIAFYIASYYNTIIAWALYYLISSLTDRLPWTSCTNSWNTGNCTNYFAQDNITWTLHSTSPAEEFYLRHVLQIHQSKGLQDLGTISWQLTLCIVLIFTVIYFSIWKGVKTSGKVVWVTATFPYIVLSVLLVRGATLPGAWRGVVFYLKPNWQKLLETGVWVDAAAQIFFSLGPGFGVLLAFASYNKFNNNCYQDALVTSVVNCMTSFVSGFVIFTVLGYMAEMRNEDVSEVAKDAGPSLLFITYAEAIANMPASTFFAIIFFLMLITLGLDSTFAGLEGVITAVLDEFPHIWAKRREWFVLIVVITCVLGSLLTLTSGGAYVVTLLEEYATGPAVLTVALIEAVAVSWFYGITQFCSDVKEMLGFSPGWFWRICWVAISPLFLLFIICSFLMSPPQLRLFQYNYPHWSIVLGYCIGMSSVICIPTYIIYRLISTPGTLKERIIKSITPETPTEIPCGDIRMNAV
Outline: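 Compounds screened at 10 μM and reported as percent inhibition of serotonin uptake. Uptake measured in a freshly prepared P2 synaptosomal fraction from rat brain.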

Structure (SMILES)	B1R Ant. h [10 μM] % Inhibition [1]	5-HT (inhibition of reuptake of serotonin, % inhibition) [2]
COc1cc(C)c(S(=O)(=O)N2CCC(OCC(=O)NCCC3CCC(C(c4ccc(F)cc4)N(C)C)CC3)CC2)c(C)c1C (stereo not drawn) [Example 480]	23%	98%
CN(C)C(c1ccc(F)cc1)C1CCC(CNC(=O)COC2CCN(S(=O)(=O)c3ccc(Cl)cc3)C2)CC1 (stereo not drawn) [Example 517]	−13%	86%
COc1ccc(S(=O)(=O)N(C)CCOCC(=O)NCCC2CCC(C(c3ccc(F)cc3)N(C)C)CC2)cc1 (stereo not drawn) [Example 519]	38%	88%
COc1cc(C)c(S(=O)(=O)N2CCC(CCOCC(=O)NCC3CCC(C(c4ccc(F)cc4)N(C)C)CC3)CC2)c(C)c1C (stereo not drawn) [Example 481]	9%	88%
Cc1cc(C)c(S(=O)(=O)N2CCC(OCC(=O)NCCC3CCC(C(c4ccc(F)cc4)N(C)C)CC3)C2)c(C)c1 (stereo not drawn) [Example 501]	77%	77%
CN(C)C(c1ccc(F)cc1)C1CCC(CCNC(=O)COC2CCCN(S(=O)(=O)c3ccccc3)C2)CC1 (stereo not drawn) [Example 520]	−4%	97%
CN(C)C(c1ccc(F)cc1)C1CCC(CNC(=O)COC2CCN(S(=O)(=O)c3ccc(F)cc3)C2)CC1 (stereo not drawn) [Example 522]	1%	98%
CN(C)C(c1ccc(F)cc1)C1CCC(CCNC(=O)COCCN2CCN(S(=O)(=O)c3ccccc3)CC2)CC1 (stereo not drawn) [Example 493]	−13%	96%
CN(C)C(CCc1ccccc1)C1CCC(CNC(=O)COC2CCN(S(=O)(=O)c3ccc(Cl)cc3Cl)C2)CC1 (stereo not drawn) [Example 496]	98%	89%
CN(C)C(c1ccc(F)cc1)C1CCC(CCNC(=O)COCCC2CCN(S(=O)(=O)c3ccccc3)CC2)CC1 (stereo not drawn) [Example 470]	4%	82%
COc1cc(C)c(S(=O)(=O)N(CCOCC(=O)NCC2CCC(C(CCc3ccccc3)N(C)C)CC2)Cc2ccccc2)c(C)c1 (stereo not drawn) [Example 542]	103%	87%
COc1ccc(S(=O)(=O)N2CCCCC2COCC(=O)NC2CCC(C(c3ccc(F)cc3)N(C)C)CC2)c(OC)c1 (stereo not drawn) [Example 524]	−11%	86%
